The values below come from ChEMBL document CHEMBL1201862, “PubChem BioAssay data set” (2004).

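Cultured in 96-well plates, cells were exposed to test compound for 48 hours across five concentrations. At the GI50, growth is halved.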 The source made the active and inactive calls. Rule as the data show it: active = GI50 up to about 1.1 µM and inactive = higher.

Test systems include SNB-19; EKVX; 786-0; RPMI-8226; SNB-75; OVCAR-3; HCT-116; TK-10; SK-MEL-5; NCI-H522; UACC-257; OVCAR-4; A549; MOLT-4; IGROV-1; A498; HT-29; NCI/ADR-RES; PC-3.
Common to all, as to test: inhibition of tumour cell growth, NCI panel, 48 h

For the compound `C[Si](C)(C)OC1CC(=O)OC1n1cc(F)c(=O)[nH]c1=O` (configuration not stated), the GI50 in the assay with SNB-19 was > 55.1 µM (inactive); in the assay with EKVX, 8.18 µM (inactive); in the assay with 786-0, 21.4 µM (inactive); in the assay with RPMI-8226, 3.14 µM (inactive); with SNB-75 it was 65.9 µM (inactive); in the assay with OVCAR-3 it was 52.8 µM (inactive). For the same compound, the GI50 in the assay with HCT-116 is 5.79 µM (inactive); with TK-10, > 100 µM (inactive); with SK-MEL-5, > 100 µM (inactive); with NCI-H522, 19.5 µM (inactive); with UACC-257 it was > 64.3 µM (inactive); in the assay on OVCAR-4, > 28.4 µM (inactive). Moreover, the GI50 is 4.38 µM (inactive) in the assay with A549; 17.8 µM (inactive) in the assay with MOLT-4; > 96.6 µM (inactive) with IGROV-1; > 100 µM (inactive) with A498; 8.32 µM (inactive) with HT-29.

`CNC(=O)N1CN(c2ccccc2)C2(CCN(Cc3ccccc3)CC2)C1=O`: the GI50 with SNB-19 was > 100 µM (inactive); in the assay on EKVX, 74.6 µM (inactive); with 786-0, > 100 µM (inactive); with RPMI-8226 it was 43.4 µM (inactive); in the assay with SNB-75 it was > 100 µM (inactive); in the assay with OVCAR-3 it was > 100 µM (inactive). For the same compound, the GI50 is 24.9 µM (inactive) with HCT-116; 12.2 µM (inactive) in the assay with NCI/ADR-RES; 62.5 µM (inactive) in the assay with TK-10; 56.1 µM (inactive) with SK-MEL-5; > 100 µM (inactive) in the assay with NCI-H522; > 100 µM (inactive) in the assay on UACC-257. Moreover, the GI50 is > 100 µM (inactive) in the assay on A549; 14.2 µM (inactive) in the assay with MOLT-4; 93.1 µM (inactive) with PC-3; 5 µM (inactive) in the assay with IGROV-1; 15.6 µM (inactive) with HT-29.

On to `C=C(CCCCC)CN1CCCC1[C@@](C)(O)CC(=O)OCC` (some centres not stated), for which the GI50 in the assay with SNB-19, with EKVX, in the assay on 786-0, in the assay with RPMI-8226, with SNB-75 and in the assay on OVCAR-3 was > 100 µM (inactive) throughout. The GI50 in the assay with HCT-116, in the assay on TK-10, in the assay on SK-MEL-5, with NCI-H522, in the assay with UACC-257 and in the assay on OVCAR-4 was > 100 µM (inactive) each time. Moreover, the GI50 in the assay on A549 was > 100 µM (inactive); in the assay with MOLT-4, 90.2 µM (inactive); with IGROV-1 it was > 100 µM (inactive); with A498, > 100 µM (inactive); with HT-29, > 100 µM (inactive).

For the compound `CCOC(CCCN1CCC2(CC1)C(=O)N(C)CN2c1ccccc1)(OCC)c1ccc(F)cc1`, the GI50 in the assay on SNB-19 is 10.2 µM (inactive); in the assay on EKVX, 2.14 µM (inactive); in the assay with 786-0 it was 14.6 µM (inactive); in the assay with RPMI-8226, 10.5 µM (inactive); in the assay with SNB-75, 19.4 µM (inactive); in the assay with OVCAR-3 it was 13.6 µM (inactive). Moreover, the GI50 in the assay on HCT-116 is 3.82 µM (inactive); in the assay on NCI/ADR-RES it was 13.7 µM (inactive); in the assay with TK-10, 7.66 µM (inactive); with SK-MEL-5 it was 3.45 µM (inactive); in the assay on NCI-H522, 16.9 µM (inactive); in the assay on UACC-257 it was 6.14 µM (inactive). Further, the GI50 in the assay with A549 is 8.65 µM (inactive); with MOLT-4, 7.11 µM (inactive); with PC-3, 15.7 µM (inactive); in the assay with IGROV-1, 8.41 µM (inactive); with HT-29, 3.49 µM (inactive).

Turning to `COc1cc(NCc2ccc3nc(OC)c(OC)nc3c2)cc(OC)c1OC`, the GI50 in the assay with SNB-19 is > 100 µM (inactive); in the assay with EKVX, 77.4 µM (inactive); in the assay on 786-0 it was > 100 µM (inactive); in the assay on SNB-75, 54.8 µM (inactive); in the assay on OVCAR-3 it was > 100 µM (inactive); in the assay with HCT-116, > 100 µM (inactive). Further, the GI50 is 42.1 µM (inactive) in the assay with NCI/ADR-RES; > 100 µM (inactive) in the assay with SK-MEL-5; 86.5 µM (inactive) with NCI-H522; > 100 µM (inactive) in the assay on UACC-257; > 100 µM (inactive) with OVCAR-4; > 100 µM (inactive) with A549. Further, the GI50 is > 100 µM (inactive) in the assay on MOLT-4; 89.1 µM (inactive) in the assay on PC-3; > 100 µM (inactive) with IGROV-1; > 100 µM (inactive) in the assay with A498; > 100 µM (inactive) in the assay on HT-29.

For `COc1ccc(/C(Br)=C2\OC(=O)c3ccccc32)cc1`, the GI50 in the assay with SNB-19, in the assay with EKVX, with 786-0, in the assay with RPMI-8226, with SNB-75 and in the assay on OVCAR-3 was > 10 µM (inactive) in each case. Also, the GI50 with HCT-116, in the assay with NCI/ADR-RES, in the assay with TK-10, in the assay on SK-MEL-5, in the assay on NCI-H522 and in the assay with UACC-257 was > 10 µM (inactive) throughout. The GI50 with OVCAR-4, with A549, with MOLT-4, in the assay on PC-3, with IGROV-1 and with HT-29 was > 10 µM (inactive) each time.

In the case of `COC(=O)c1cc(C)ccc1C1CN=NC12Cc1cccc(C)c1C2=O` (configuration not stated), the GI50 in the assay on SNB-19 was 55.1 µM (inactive); in the assay on EKVX, 23 µM (inactive); with 786-0, 56.6 µM (inactive); in the assay on RPMI-8226 it was 16.8 µM (inactive); in the assay on SNB-75, 77.3 µM (inactive); with OVCAR-3, 36.1 µM (inactive). The GI50 with HCT-116 is 23.8 µM (inactive); with NCI/ADR-RES, 25.5 µM (inactive); with TK-10, 71.6 µM (inactive); in the assay on SK-MEL-5, 18 µM (inactive); in the assay on NCI-H522, 21.3 µM (inactive); with UACC-257, 30.9 µM (inactive). Also, the GI50 was 25.5 µM (inactive) with OVCAR-4; 31.7 µM (inactive) in the assay on A549; 18.7 µM (inactive) in the assay on MOLT-4; 37.7 µM (inactive) with IGROV-1; 47.6 µM (inactive) with A498; 36 µM (inactive) with HT-29.

For `N#CNc1nc(N)c(-c2ccc(Cl)cc2)c(C(=O)Nc2nccs2)n1`, the GI50 with SNB-19, with EKVX, in the assay with 786-0, in the assay with RPMI-8226, with SNB-75 and in the assay with OVCAR-3 was > 100 µM (inactive) each time. The GI50 in the assay with HCT-116, in the assay on TK-10, with SK-MEL-5, in the assay with NCI-H522, in the assay on UACC-257 and with OVCAR-4 was > 100 µM (inactive) throughout. The GI50 in the assay with A549, with MOLT-4, with IGROV-1, in the assay on A498 and with HT-29 was > 100 µM (inactive) throughout.

On to `CCO/C([O-])=C(\C(=O)c1ccccc1)[n+]1c(C)n(C)c2ccccc21`, for which the GI50 with SNB-19, in the assay on EKVX, in the assay on 786-0, with RPMI-8226, in the assay with SNB-75 and in the assay with OVCAR-3 was > 100 µM (inactive) throughout. Also, the GI50 in the assay on HCT-116, in the assay on TK-10, with SK-MEL-5, with NCI-H522, in the assay with UACC-257 and in the assay with OVCAR-4 was > 100 µM (inactive) throughout. Besides, the GI50 in the assay on A549, in the assay on MOLT-4, in the assay with IGROV-1, in the assay on A498 and in the assay on HT-29 was > 100 µM (inactive) in each case.

For `C/C1=C\[C@H](C)C[C@H](C)OC(=O)C[C@H](c2ccc(O)cc2)NC(=O)[C@H](Cc2ccc(O)c(I)c2)N(C)C(=O)[C@H](C)NC(=O)[C@@H](C)C1`, the GI50 in the assay on SNB-19 is 0.0143 µM (active); in the assay on EKVX it was 0.0596 µM (active); in the assay on 786-0 it was 0.0148 µM (active); with RPMI-8226, 0.0108 µM (active); in the assay with SNB-75, 0.0354 µM (active); in the assay with OVCAR-3 it was 0.0203 µM (active). The GI50 is 0.016 µM (active) in the assay on HCT-116; 1.11 µM (active) with NCI/ADR-RES; 0.0586 µM (active) in the assay with TK-10; 0.0169 µM (active) in the assay with SK-MEL-5; 0.0818 µM (active) with NCI-H522; 0.00653 µM (active) in the assay on OVCAR-4. Besides, the GI50 with A549 was 0.0102 µM (active); in the assay with MOLT-4 it was 0.258 µM (active); in the assay on PC-3 it was 0.0608 µM (active); in the assay on IGROV-1, 0.0121 µM (active); with A498, 0.016 µM (active); with HT-29 it was 0.00274 µM (active).

For `CC(=O)c1ccc2c(c1)C(=O)c1sc(C(C)=O)cc1C2=O`, the GI50 in the assay with SNB-19 was 0.748 µM (active); in the assay on EKVX, 1.18 µM (inactive); with 786-0, 1.68 µM (inactive); in the assay on RPMI-8226 it was 1.74 µM (inactive); in the assay on SNB-75, 1.67 µM (inactive); with OVCAR-3 it was 0.368 µM (active). Also, the GI50 in the assay on HCT-116 is 0.488 µM (active); in the assay on NCI/ADR-RES, 0.906 µM (active); in the assay with TK-10, 1.76 µM (inactive); in the assay with SK-MEL-5, 0.389 µM (active); with NCI-H522, 0.652 µM (active); with UACC-257, 0.859 µM (active). The GI50 is 1.73 µM (inactive) in the assay on OVCAR-4; 2.59 µM (inactive) in the assay with A549; 0.233 µM (active) in the assay on MOLT-4; 1.82 µM (inactive) in the assay with PC-3; 1.07 µM (active) in the assay on IGROV-1; 21.6 µM (inactive) with A498. For the same compound, in the assay on HT-29, the GI50 is 1.2 µM (inactive).
